Assay results published in PMC10606833, “A Comprehensive Study on the Chemical Characterization and Neuroprotective Evaluation of Pracaxi Nuts Extracts Obtained by a Sustainable Approach” (Foods, 2023).

What was measured:
[1] = RNS scavenging capacity, nitric oxide (NO) radical scavenging assay; assay type: biochemical; conditions: optimized PLE extracts and reference standard (Table 2)
Description: (§1) The ROS scavenging capacity of the PLE extracts obtained from pracaxi nuts cake was measured using the oxygen radical absorbance capacity (ORAC) assay previously described. Ascorbic acid and 10% EtOH (v/v) were used as reference standard and blank control solutions, respectively. Complementary, the RNS scavenging capacity was estimated referring to the nitric oxide (NO) radical scavenging assay. Ascorbic acid was used as the reference standard and 25% EtOH was used as blank control solution. The AChE and BChE inhibitory activities of pracaxi nuts cake PLE extracts were estimated according to the fluorescent enzyme kinetic method described by Sanchez-Martinez et al.. […] Finally, the LOX inhibitory activity of pracaxi nuts cake PLE extracts was determined as described in [26], with slight modifications.

[2] = ROS scavenging capacity, oxygen radical absorbance capacity (ORAC) assay; assay type: biochemical; conditions: optimized PLE extracts and reference standard (Table 2)
Description: as §1

O=C1O[C@H]([C@@H](O)CO)C(O)=C1O [Ascorbic acid, ascorbic acid]
RNS (IC50) [1]: 1120 ± 16 µg/mL
ROS (IC50) [2]: 3.2 ± 0.2 µg/mL
